Data reported in patent publication US20180186769A1, “6-AMINO-5-FLUORO-5-(FLUOROMETHYL)-2,3,4,5-TETRAHYDROPYRIDIN-2-YL-PHENYL-5-(METHOXY-D3)-PYRAZINE-2-CARBOXAMIDES AND FLUORINATED DERIVATIVES THEREOF AS BACE1 INHIBITORS” (H. Lundbeck A/S, priority 2016, published 2018).
Read-outs that look alike come from different tables or passages of the source.

Key:
[1] = Bioanalysis of brain and plasma samples (UPLC-MS/MS); type: in vivo, Sprague Dawley rats; conditions: male, po, rat, p.o.; for Kp at 0.5 h / Kp at 1 h / Kp at 3 h / Kp at 6 h / Kp at 12 h: read-out: Brain/Plasma ratio
Description: Young adult Male Sprague Dawley rats of approximately 250 g weight were purchased from Charles River and received vehicle (2.5% HP betaCD+1M MeSO4, pH 2.5) or 0-40 mg/kg of test compounds (dissolved in vehicle) by oral gavage (p.o). The compounds are dosed at a volume of 5 ml/kg. Cohorts of 5-10 animals were established for each treatment condition.
Studies were set up as acute dose response treatment studies were samples were taken at T=180 minutes after initial dosing, or as 12 h or 24 h timecourse treatment studies. At the end of the test period, the animals were stunned and decapitated with a guillotine. Trunk-blood was sampled in EDTA coated tubes after decapitation of the animal. The blood was centrifuged at 2200G at 4° C. for 15 minutes and the plasma was collected and frozen at −80° C. The blood was aliquoted for Aβ ELISA and DMPK analysis. Immediately following sacrifice, the brain was extracted and split into 2 halves. The left half was dissected; with the front forebrain taken for Aβ ELISA and the remainder used for DMPK analysis. These samples were also snap frozen on dry ice and stored at −80° C. until use for analysis. The right hemibrains were snap frozen on dry ice and stored at −80° C. for independent confirmatory Aβ ELISA evalution.
TC was determined in plasma and brain homogenate using UltraPerformance LC® (UPLC®) chromatography followed by tandem-MS (MS/MS) detection.
Brain homogenate was prepared by homogenizing the brain 1:4 (v/v) with water:2-propanol:DMSO (50:30:20 v/v/v) followed by centrifugation and collection of the supernatant. Calibration standards and QC samples were prepared using a Hamilton robot. 150 μL of ISTD in acetonitrile (1 ng/mL ISTD) was added to 25 μL of calibration standards, QC samples and test samples (plasma and brain homogenate) using a Biomek robot. After centrifugation (6200 g, 4° C., 20 min) 100 μL supernatant from each sample was transferred to a new plate and mixed with 100 μL water with 0.1% formic acid using a Biomek robot (method file InVivo transfer). After a quick centrifugation (6200 g, 4° C., 5 min) the samples were placed in the auto-sampler.
MS/MS detection was done with an Applied Biosystems Sciex API 4000 instrument in positive-ion electrospray ionisation mode. TC and ISTD were detected at a parent>daughter mass to charge ratio (m/z). Nitrogen was used for the nebulizer and collision gases. The peak area correlated linearly with the plasma and brain concentration of the analytes in the range of 1.00-1000 ng/mL plasma and 5.00-5000 ng/g brain (corrected for dilution). If the plasma/brain sample drug concentration was above 1000 ng/mL or 5000 ng/g, the sample was diluted appropriately in blank plasma/blank brain homogenate before analysis.

[2] = Clearance in hepatocytes, rat; type: in vitro ADME; conditions: read-out: CLint, Rat (L/h/kg) ± SD (converted)
Source text: (§1) Deuterated compounds were compared to their non-deuterated parent counterparts to determine the impact of deuteration on clearance results

[3] = Clearance in hepatocytes, dog; type: in vitro ADME; conditions: read-out: CLint, Dog (L/h/kg) ± SD (converted)
Source text: as §1

[4] = Clearance in microsomes, rat; type: in vitro ADME; conditions: 1 microM, read-out: CLint, Rat (L/h/kg) ± SD (converted)
Source text: as §1

[5] = Sprague Dawley, brain and plasma, 10 mg/kg
[6] = Sprague Dawley, brain, 10 mg/kg, read-out: Mean rat brain conc.
[7] = Sprague Dawley, plasma, 10 mg/kg, read-out: Mean rat plasma conc.
[8] = Sprague-Dawley, brain, 20 mg/kg, read-out: Mean rat brain conc.
[9] = Sprague-Dawley, brain, 40 mg/kg, read-out: Mean rat brain conc.
[10] = Sprague-Dawley, brain/plasma, 20 mg/kg
[11] = Sprague-Dawley, brain/plasma, 40 mg/kg
[12] = Sprague-Dawley, plasma, 20 mg/kg, read-out: Mean rat plasma conc.
[13] = Sprague-Dawley, plasma, 40 mg/kg, read-out: Mean rat plasma conc.

[2H]C([2H])([2H])Oc1cnc(C(=O)Nc2ccc(F)c([C@]3(C)CC[C@@](F)(CF)C(N)=N3)c2)cn1 [Example 1, N-(3-((2S,5S)-6-amino-5-fluoro-5-(fluoromethyl)-2-methyl-2,3,4,5-tetrahydropyridin-2-yl)-4-fluorophenyl)-5-(methoxy-d3)pyrazine-2-carboxamide]
Kp at 0.5 h [1, 5]: 1.8
Kp at 1 h [1, 5]: 2.3
Kp at 3 h [1, 5]: 2.1
Kp at 6 h [1, 5]: 1.9
Kp at 12 h [1, 5]: 1.7
concentration at 0.5 h [1, 6]: 550 ng/g
concentration at 1 h [1, 6]: 1100 ng/g
concentration at 3 h [1, 6]: 700 ng/g
concentration at 6 h [1, 6]: 430 ng/g
concentration at 12 h [1, 6]: 140 ng/g
concentration at 0.5 h [1, 7]: 300 ng/mL
concentration at 1 h [1, 7]: 500 ng/mL
concentration at 3 h [1, 7]: 340 ng/mL
concentration at 6 h [1, 7]: 230 ng/mL
concentration at 12 h [1, 7]: 79 ng/mL
concentration at 0.5 h [1, 8]: 1530 ng/g
concentration at 1 h [1, 8]: 2380 ng/g
concentration at 3 h [1, 8]: 1960 ng/g
concentration at 6 h [1, 8]: 1540 ng/g
concentration at 12 h [1, 8]: 438 ng/g
concentration at 0.5 h [1, 9]: 2500 ng/g
concentration at 1 h [1, 9]: 2800 ng/g
concentration at 3 h [1, 9]: 3000 ng/g
concentration at 6 h [1, 9]: 3700 ng/g
concentration at 12 h [1, 9]: 1100 ng/g
Kp at 0.5 h [1, 10]: 2.9
Kp at 1 h [1, 10]: 3.9
Kp at 3 h [1, 10]: 3.4
Kp at 6 h [1, 10]: 3.2
Kp at 12 h [1, 10]: 2.7
Kp at 0.5 h [1, 11]: 2.8
Kp at 1 h [1, 11]: 3.1
Kp at 3 h [1, 11]: 2.8
Kp at 6 h [1, 11]: 3
Kp at 12 h [1, 11]: 2.5
concentration at 0.5 h [1, 12]: 532 ng/mL
concentration at 1 h [1, 12]: 614 ng/mL
concentration at 3 h [1, 12]: 572 ng/mL
concentration at 6 h [1, 12]: 477 ng/mL
concentration at 12 h [1, 12]: 159 ng/mL
concentration at 0.5 h [1, 13]: 740 ng/mL
concentration at 1 h [1, 13]: 880 ng/mL
concentration at 3 h [1, 13]: 1100 ng/mL
concentration at 6 h [1, 13]: 1200 ng/mL
concentration at 12 h [1, 13]: 410 ng/mL
CLint scaled at 0.1 µM ([2]; 0.1 microM): 1.5 L/h/kg
CLint scaled at 0.3 µM ([2]; 0.3 microM): 1.2 L/h/kg
CLint scaled at 1 µM ([2]; 1 microM): < 0.4 L/h/kg
CLint scaled at 0.1 µM ([3]; 0.1 microM): 34 L/h/kg
CLint scaled at 0.3 µM ([3]; 0.3 microM): 25 L/h/kg
CLint scaled at 1 µM ([3]; 1 microM): 11 L/h/kg
CLint scaled at 1 µM [4]: 0.9 L/h/kg
